Results as given in patent US11993599B2, “Therapeutic compounds” (Genentech, Inc., priority 2021, dated 2024).

Tests used:
BRM = BRM (Homo sapiens, UniProt P51531); test: Immunofluorescence assay for BRM degradation in SW1573 cells; format: cell-based; design: treated overnight at 4° C. with either BRM primary antibody (Cell signaling Cat #11966) or BRG primary antibody; endogenous in cells; host or cells: SW1573; conditions: 20 hours incubation; for DC50: immunofluorescence mean nuclear signal, read-out: BRM IF Degradation IC50; for BRM IF Degradation Sinf (%): normalized to a known degrader control
Summary of the method: (§1)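 After a 20 h incubation with test compound, SW1573 cells are fixed and stained for BRM or BRG1 plus Hoechst. Per-cell mean nuclear intensity, referenced to a degrader control, is fit concentration-dependently with unconstrained maximum for Dmax.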

BRG1 = biological target: T1, BRG1 (Homo sapiens, UniProt P51532); test: Immunofluorescence assay for BRG1 degradation in SW1573 cells; format: cell-based; conditions: 20 hours incubation; for DC50: immunofluorescence mean nuclear signal, read-out: BRG1 IF Degradation IC50; for Dmax: SW1573, 20 h, normalized to a known degrader control, read-out: BRG1 IF Degradation Sinf (%)
T1 construct: either BRM primary antibody (Cell signaling Cat #11966) or BRG primary antibody (Abcam, ab 110641); endogenous in cells; host or cells: SW1573
Summary of the method: as §1

T1 sequence (P51532 whole entry): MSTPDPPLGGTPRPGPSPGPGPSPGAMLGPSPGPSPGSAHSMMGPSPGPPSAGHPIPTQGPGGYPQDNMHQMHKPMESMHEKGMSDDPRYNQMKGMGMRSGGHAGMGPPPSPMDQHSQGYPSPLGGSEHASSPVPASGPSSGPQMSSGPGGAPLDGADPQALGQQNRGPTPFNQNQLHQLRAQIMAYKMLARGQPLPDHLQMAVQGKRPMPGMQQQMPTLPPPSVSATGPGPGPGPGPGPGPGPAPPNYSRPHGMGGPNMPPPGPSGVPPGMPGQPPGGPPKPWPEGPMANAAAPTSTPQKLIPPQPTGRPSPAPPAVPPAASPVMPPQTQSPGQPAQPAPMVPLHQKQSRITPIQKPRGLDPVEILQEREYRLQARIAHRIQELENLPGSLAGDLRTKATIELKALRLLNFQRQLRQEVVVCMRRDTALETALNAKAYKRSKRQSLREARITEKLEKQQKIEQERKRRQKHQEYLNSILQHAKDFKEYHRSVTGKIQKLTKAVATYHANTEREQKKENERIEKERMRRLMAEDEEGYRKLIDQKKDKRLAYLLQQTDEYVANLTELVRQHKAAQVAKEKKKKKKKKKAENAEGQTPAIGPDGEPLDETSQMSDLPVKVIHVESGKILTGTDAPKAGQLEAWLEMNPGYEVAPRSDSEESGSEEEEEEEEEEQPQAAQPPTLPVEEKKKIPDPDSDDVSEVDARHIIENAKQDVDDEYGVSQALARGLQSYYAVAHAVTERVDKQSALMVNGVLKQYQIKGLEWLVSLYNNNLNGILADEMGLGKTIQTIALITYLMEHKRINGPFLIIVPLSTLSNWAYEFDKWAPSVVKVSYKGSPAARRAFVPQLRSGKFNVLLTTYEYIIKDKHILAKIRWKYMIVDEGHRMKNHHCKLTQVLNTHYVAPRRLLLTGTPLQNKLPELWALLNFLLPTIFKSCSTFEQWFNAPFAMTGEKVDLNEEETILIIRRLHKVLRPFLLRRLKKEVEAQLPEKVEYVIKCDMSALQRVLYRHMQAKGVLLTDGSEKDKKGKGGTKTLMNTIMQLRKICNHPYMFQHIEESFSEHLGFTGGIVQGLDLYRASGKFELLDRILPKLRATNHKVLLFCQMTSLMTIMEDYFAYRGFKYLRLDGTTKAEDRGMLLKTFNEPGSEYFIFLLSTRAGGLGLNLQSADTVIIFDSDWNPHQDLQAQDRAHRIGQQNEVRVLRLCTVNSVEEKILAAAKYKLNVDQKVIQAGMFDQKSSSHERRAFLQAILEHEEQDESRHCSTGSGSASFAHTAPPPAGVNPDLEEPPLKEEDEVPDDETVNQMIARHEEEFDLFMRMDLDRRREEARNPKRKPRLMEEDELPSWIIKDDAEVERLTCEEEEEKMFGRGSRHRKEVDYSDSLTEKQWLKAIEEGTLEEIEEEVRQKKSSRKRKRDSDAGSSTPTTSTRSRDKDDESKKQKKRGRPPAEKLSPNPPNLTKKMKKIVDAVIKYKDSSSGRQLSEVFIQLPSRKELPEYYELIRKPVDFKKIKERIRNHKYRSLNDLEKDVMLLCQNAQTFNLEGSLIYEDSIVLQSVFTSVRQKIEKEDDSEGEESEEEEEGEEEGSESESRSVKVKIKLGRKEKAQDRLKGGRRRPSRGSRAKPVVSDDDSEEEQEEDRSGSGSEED
Sequence of BRM (P51531 whole entry): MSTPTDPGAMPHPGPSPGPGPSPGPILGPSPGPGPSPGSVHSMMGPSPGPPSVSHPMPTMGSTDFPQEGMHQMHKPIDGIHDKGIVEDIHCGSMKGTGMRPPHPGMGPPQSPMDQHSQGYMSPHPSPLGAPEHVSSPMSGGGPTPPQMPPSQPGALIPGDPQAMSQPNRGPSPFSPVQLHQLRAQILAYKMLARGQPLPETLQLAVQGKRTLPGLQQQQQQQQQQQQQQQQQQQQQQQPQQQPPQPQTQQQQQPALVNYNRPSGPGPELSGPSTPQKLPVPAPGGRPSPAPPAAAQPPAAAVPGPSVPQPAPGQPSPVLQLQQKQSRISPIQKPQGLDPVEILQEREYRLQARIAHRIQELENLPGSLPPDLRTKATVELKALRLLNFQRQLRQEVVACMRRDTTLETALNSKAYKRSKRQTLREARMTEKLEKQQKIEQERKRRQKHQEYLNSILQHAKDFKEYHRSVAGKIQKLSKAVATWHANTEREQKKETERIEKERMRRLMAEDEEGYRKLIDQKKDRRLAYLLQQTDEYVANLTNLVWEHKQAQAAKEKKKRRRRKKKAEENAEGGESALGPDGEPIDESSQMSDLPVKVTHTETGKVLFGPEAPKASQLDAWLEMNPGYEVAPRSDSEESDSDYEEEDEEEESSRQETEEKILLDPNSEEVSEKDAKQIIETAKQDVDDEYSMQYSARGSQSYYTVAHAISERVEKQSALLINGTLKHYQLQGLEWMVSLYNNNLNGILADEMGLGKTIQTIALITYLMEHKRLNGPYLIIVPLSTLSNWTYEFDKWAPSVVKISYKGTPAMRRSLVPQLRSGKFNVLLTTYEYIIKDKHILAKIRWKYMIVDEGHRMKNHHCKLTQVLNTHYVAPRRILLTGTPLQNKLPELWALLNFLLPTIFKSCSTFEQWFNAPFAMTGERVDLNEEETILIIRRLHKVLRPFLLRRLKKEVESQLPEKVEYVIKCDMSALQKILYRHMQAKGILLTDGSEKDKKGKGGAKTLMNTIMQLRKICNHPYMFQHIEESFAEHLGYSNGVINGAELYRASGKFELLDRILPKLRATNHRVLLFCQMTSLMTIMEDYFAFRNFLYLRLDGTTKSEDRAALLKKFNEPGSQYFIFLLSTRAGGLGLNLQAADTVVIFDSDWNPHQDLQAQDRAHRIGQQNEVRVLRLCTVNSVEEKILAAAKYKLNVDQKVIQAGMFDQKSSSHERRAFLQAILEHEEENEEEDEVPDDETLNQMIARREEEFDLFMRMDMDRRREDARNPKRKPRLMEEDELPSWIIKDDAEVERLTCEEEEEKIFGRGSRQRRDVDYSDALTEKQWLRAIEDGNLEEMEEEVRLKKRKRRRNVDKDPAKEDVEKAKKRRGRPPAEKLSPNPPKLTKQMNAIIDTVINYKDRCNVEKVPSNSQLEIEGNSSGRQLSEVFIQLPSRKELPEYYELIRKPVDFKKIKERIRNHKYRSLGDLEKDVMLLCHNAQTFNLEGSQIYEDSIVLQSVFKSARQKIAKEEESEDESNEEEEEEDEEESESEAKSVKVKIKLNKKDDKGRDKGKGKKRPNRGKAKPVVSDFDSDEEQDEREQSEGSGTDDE

Structure (SMILES) | DC50 (BRM) | BRM IF Degradation Sinf (%) (BRM) | DC50 (BRG1) | Dmax (BRG1)
Nc1nnc(-c2ccccc2O)cc1N1CC2CCC(C1)N2c1ccnc(C#CCN2CC3(CCCCC3)C2)c1 [Compound 230, 2-[6-amino-5-[8-[2-[3-(2-azaspiro[3.5]nonan-2-yl)prop-1-ynyl]-4-pyridyl]-3,8-diazabicyclo[3.2.1]octan-3-yl]pyridazin-3-yl]phenol] | 10 to 100 nM | E (E indicates −30%-−70%) | 10 to 100 nM | 30 to 70%
CC1CCN(CC#Cc2cc(N3C4CCC3CN(c3cc(-c5ccccc5O)nnc3N)C4)ccn2)CC1 [Compound 138, 2-[6-amino-5-[8-[2-[3-(4-methyl-1-piperidyl)prop-1-ynyl]-4-pyridyl]-3,8-diazabicyclo[3.2.1]octan-3-yl]pyridazin-3-yl]phenol] | 10 to 100 nM | E (E indicates −30%-−70%) | < 10 nM | 30 to 70%
Nc1nnc(-c2ccccc2O)cc1N1CC2CCC(C1)N2c1ccnc(C#CCN2CC3CCCC3C2)c1 (centres unmarked) [Compound 63, 2-[5-[8-[2-[3-(3,3a,4,5,6,6a-hexahydro-1H-cyclopenta[c]pyrrol-2-yl)prop-1-ynyl]-4-pyridyl]-3,8-diazabicyclo[3.2.1]octan-3-yl]-6-amino-pyridazin-3-yl]phenol] | < 10 nM | F (F indicates −71%-−120%) | < 10 nM | 30 to 70%
Nc1nnc(-c2ccccc2O)cc1N1CC2CCC(C1)N2c1ccnc(C#CCN2CCCC23CCC3)c1 [Compound 106, 2-[6-amino-5-[8-[2-[3-(5-azaspiro[3.4]octan-5-yl)prop-1-ynyl]-4-pyridyl]-3,8-diazabicyclo[3.2.1]octan-3-yl]pyridazin-3-yl]phenol] | < 10 nM | E (E indicates −30%-−70%) | < 10 nM | 30 to 70%
Nc1nnc(-c2ccccc2O)cc1N1CC2CCC(C1)N2c1ccnc(C#CCN2CCC3(CCCO3)C2)c1 (centres unmarked) [Compound 44, 2-[6-amino-5-[8-[2-[3-(1-oxa-7-azaspiro[4.4]nonan-7-yl)prop-1-ynyl]-4-pyridyl]-3,8-diazabicyclo[3.2.1]octan-3-yl]pyridazin-3-yl]phenol] | < 10 nM | E (E indicates −30%-−70%) | 10 to 100 nM | 30 to 70%
Nc1nnc(-c2ccccc2O)cc1N1CC2CCC(C1)N2c1cc(C#CCN2CCCCCC2)ncn1 [Compound 247, 2-(6-amino-5-(8-(6-(3-(azepan-1-yl)prop-1-yn-1-yl)pyrimidin-4-yl)-3,8-diazabicyclo[3.2.1]octan-3-yl)pyridazin-3-yl)phenol] | < 10 nM | F (F indicates −71%-−120%) | < 10 nM | 71 to 120%
Nc1nnc(-c2ccccc2O)cc1N1CC2CCC(C1)N2c1ccnc(C#CCN2CCOC3(CCC3)C2)c1 [Compound 77] | 10 to 100 nM | E (E indicates −30%-−70%) | > 100 nM | –
Nc1nnc(-c2ccccc2O)cc1N1CC2CCC(C1)N2c1ccnc(C#CCN2CC3COCC(C2)C3O)c1 (centres unmarked) [Compound 83, 7-[3-[4-[3-[3-amino-6-(2-hydroxyphenyl)pyridazin-4-yl]-3,8-diazabicyclo[3.2.1]octan-8-yl]-2-pyridyl]prop-2-ynyl]-3-oxa-7-azabicyclo[3.3.1]nonan-9-ol] | > 100 nM | E (E indicates −30%-−70%) | 10 to 100 nM | 30 to 70%
Nc1nnc(-c2ccccc2O)cc1N1CC2CCC(C1)N2c1ccnc(C#CCN2CCC23CCOCC3)c1 [Compound 159, 2-[6-amino-5-[8-[2-[3-(7-oxa-1-azaspiro[3.5]nonan-1-yl)prop-1-ynyl]-4-pyridyl]-3,8-diazabicyclo[3.2.1]octan-3-yl]pyridazin-3-yl]phenol] | < 10 nM | E (E indicates −30%-−70%) | < 10 nM | 30 to 70%
Nc1nnc(-c2ccccc2O)cc1N1CC2CCC(C1)N2c1ccnc(C#CCN2CC3CCC2C3)c1 (centres unmarked) [Compound 141, 2-[6-amino-5-[8-[2-[3-(2-azabicyclo[2.2.1]heptan-2-yl)prop-1-ynyl]-4-pyridyl]-3,8-diazabicyclo[3.2.1]octan-3-yl]pyridazin-3-yl]phenol] | < 10 nM | E (E indicates −30%-−70%) | < 10 nM | 30 to 70%
CC(C)(N)C#Cc1cc(N2C3CCC2CN(c2cc(-c4ccccc4O)nnc2N)C3)ccn1 [Compound 36, 2-[6-amino-5-[8-[2-(3-amino-3-methyl-but-1-ynyl)-4-pyridyl]-3,8-diazabicyclo[3.2.1]octan-3-yl]pyridazin-3-yl]phenol] | 10 to 100 nM | E (E indicates −30%-−70%) | 10 to 100 nM | 30 to 70%
Nc1nnc(-c2ccccc2O)cc1N1CC2CCC(C1)N2c1ccnc(C#CCN2Cc3cccnc3C2)c1 [Compound 56, 2-[6-amino-5-[8-[2-[3-(5,7-dihydropyrrolo[3,4-b]pyridin-6-yl)prop-1-ynyl]-4-pyridyl]-3,8-diazabicyclo[3.2.1]octan-3-yl]pyridazin-3-yl]phenol] | 10 to 100 nM | E (E indicates −30%-−70%) | > 100 nM | 0 to 30%
Nc1nnc(-c2ccccc2O)cc1N1CC2CCC(C1)N2c1ccnc(C#CCN2CCOC3(CC3)C2)c1 [Compound 124, 2-[6-amino-5-[8-[2-[3-(4-oxa-7-azaspiro[2.5]octan-7-yl)prop-1-ynyl]-4-pyridyl]-3,8-diazabicyclo[3.2.1]octan-3-yl]pyridazin-3-yl]phenol] | < 10 nM | E (E indicates −30%-−70%) | > 100 nM | –
Nc1nnc(-c2ccccc2O)cc1N1CC2CCC(C1)N2c1ccnc(C#CCN2CC3CC(CO)CC32)c1 (centres unmarked) [Compound 217, 2-[6-amino-5-[8-[2-[3-[3-(hydroxymethyl)-6-azabicyclo[3.2.0]heptan-6-yl]prop-1-ynyl]-4-pyridyl]-3,8-diazabicyclo[3.2.1]octan-3-yl]pyridazin-3-yl]phenol] | 10 to 100 nM | E (E indicates −30%-−70%) | 10 to 100 nM | 30 to 70%
Nc1nnc(-c2ccccc2O)cc1N1CC2CCC(C1)N2c1ccnc(C#CCN2CCCC(CO)CC2)c1 (centres unmarked) [Compound 215, 2-[6-amino-5-[8-[2-[3-[4-(hydroxymethyl)azepan-1-yl]prop-1-ynyl]-4-pyridyl]-3,8-diazabicyclo[3.2.1]octan-3-yl]pyridazin-3-yl]phenol] | < 10 nM | F (F indicates −71%-−120%) | 10 to 100 nM | 71 to 120%
Nc1nnc(-c2ccccc2O)cc1N1CC2CCC(C1)N2c1ccnc(C#CCN2CCOCC23CC3)c1 [Compound 73, 2-[6-amino-5-[8-[2-[3-(7-oxa-4-azaspiro[2.5]octan-4-yl)prop-1-ynyl]-4-pyridyl]-3,8-diazabicyclo[3.2.1]octan-3-yl]pyridazin-3-yl]phenol] | > 100 nM | E (E indicates −30%-−70%) | > 100 nM | –
Nc1nnc(-c2ccccc2O)cc1N1CC2CCC(C1)N2c1ccnc(C#CCN2CC(c3ccncn3)C2)c1 [Compound 231, 2-[6-amino-5-[8-[2-[3-(3-pyrimidin-4-ylazetidin-1-yl)prop-1-ynyl]-4-pyridyl]-3,8-diazabicyclo[3.2.1]octan-3-yl]pyridazin-3-yl]phenol] | < 10 nM | E (E indicates −30%-−70%) | < 10 nM | 30 to 70%
CC1CN(CC#Cc2cc(N3C4CCC3CN(c3cc(-c5ccccc5O)nnc3N)C4)ccn2)CCN1 (centres unmarked) [Compound 40, 2-[6-amino-5-[8-[2-[3-(3-methylpiperazin-1-yl)prop-1-ynyl]-4-pyridyl]-3,8-diazabicyclo[3.2.1]octan-3-yl]pyridazin-3-yl]phenol] | > 100 nM | E (E indicates −30%-−70%) | > 100 nM | –
Nc1nnc(-c2ccccc2O)cc1N1CC2CCC(C1)N2c1ccnc(C#CCN2CC3CC3(O)C2)c1 (centres unmarked) [Compound 105, 3-(3-(4-(3-(3-amino-6-(2-hydroxyphenyl)pyridazin-4-yl)-3,8-diazabicyclo[3.2.1]octan-8-yl)pyridin-2-yl)prop-2-yn-1-yl)-3-azabicyclo[3.1.0]hexan-1-ol] | 10 to 100 nM | E (E indicates −30%-−70%) | 10 to 100 nM | 0 to 30%
Nc1nnc(-c2ccccc2O)cc1N1CC2CCC(C1)N2c1ccnc(C#CCCN2CCCCCC2)c1 [Compound 222, 2-[6-amino-5-[8-[2-[4-(azepan-l-yl)but-1-ynyl]-4-pyridyl]-3,8-diazabicyclo[3.2.1]octan-3-yl]pyridazin-3-yl]phenol] | < 10 nM | F (F indicates −71%-−120%) | < 10 nM | 71 to 120%
Nc1nnc(-c2ccccc2O)cc1N1CCC2(CCN(c3ccnc(C#CCN4CCCCCC4)c3)C2)CC1 [Compound 250, 2-(6-amino-5-(2-(2-(3-(azepan-1-yl)prop-1-yn-1-yl)pyridin-4-yl)-2,8-diazaspiro[4.5]decan-8-yl)pyridazin-3-yl)phenol] | < 10 nM | E (E indicates −30%-−70%) | 10 to 100 nM | 30 to 70%
